Experimental data: PubChem BioAssay (NCI)
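96-well plates; 48 h exposure; 5 concentrations. Endpoints by linear interpolation between flanking doses. Not reached: highest tested concentration assigned. TGI denotes the concentration required for complete inhibition of growth.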

How the values were obtained:
Test in all cases: growth of human tumour cells (NCI), 48 h
SK-MEL-5 melanoma = tested on: SK-MEL-5 melanoma
RPMI-8226 leukemia = tested on: RPMI-8226 leukemia
UACC-62 melanoma = tested on: UACC-62 melanoma
ACHN renal = tested on: ACHN renal
HT29 colon = tested on: HT29 colon
786-0 renal = tested on: 786-0 renal
CCRF-CEM leukemia = tested on: CCRF-CEM leukemia
HOP-62 NSCLC = tested on: HOP-62 NSCLC
SF-268 CNS = tested on: SF-268 CNS
UO-31 renal = tested on: UO-31 renal
SR leukemia = tested on: SR leukemia
MOLT-4 leukemia = tested on: MOLT-4 leukemia
M19-MEL melanoma = tested on: M19-MEL melanoma
NCI-H23 lung = tested on: NCI-H23 lung
K-562 leukemia = tested on: K-562 leukemia
KM20L2 colon = tested on: KM20L2 colon
NCI-H522 lung = tested on: NCI-H522 lung
HCT-116 colon = tested on: HCT-116 colon
OVCAR-3 ovarian = tested on: OVCAR-3 ovarian
NCI-H226 lung = tested on: NCI-H226 lung
A549 NSCLC = tested on: A549 NSCLC
SNB-78 CNS = tested on: SNB-78 CNS
EKVX NSCLC = tested on: EKVX NSCLC
DLD-1 colon = tested on: DLD-1 colon
NCI-H460 lung = tested on: NCI-H460 lung
OVCAR-4 ovarian = tested on: OVCAR-4 ovarian
SK-MEL-28 melanoma = tested on: SK-MEL-28 melanoma
IGROV1 ovarian = tested on: IGROV1 ovarian
SNB-75 CNS = tested on: SNB-75 CNS
SN12C renal = tested on: SN12C renal
HOP-92 NSCLC = tested on: HOP-92 NSCLC
SW-620 colon = tested on: SW-620 colon
SK-MEL-2 melanoma = tested on: SK-MEL-2 melanoma
DMS 273 small cell lung = tested on: DMS 273 small cell lung
XF 498 CNS = tested on: XF 498 CNS
KM12 colon = tested on: KM12 colon
SK-OV-3 ovarian = tested on: SK-OV-3 ovarian
OVCAR-5 ovarian = tested on: OVCAR-5 ovarian
COLO 205 colon = tested on: COLO 205 colon
M14 melanoma = tested on: M14 melanoma
LXFL 529 NSCLC = tested on: LXFL 529 NSCLC
U251 CNS = tested on: U251 CNS
SF-539 CNS = tested on: SF-539 CNS
RXF-631 renal = tested on: RXF-631 renal
UACC-257 melanoma = tested on: UACC-257 melanoma
DMS 114 small cell lung = tested on: DMS 114 small cell lung
SNB-19 CNS = tested on: SNB-19 CNS
MALME-3M melanoma = tested on: MALME-3M melanoma
OVCAR-8 ovarian = tested on: OVCAR-8 ovarian
CAKI-1 renal = tested on: CAKI-1 renal
HCC-2998 colon = tested on: HCC-2998 colon
SF-295 CNS = tested on: SF-295 CNS
HOP-18 NSCLC = tested on: HOP-18 NSCLC
A498 renal = tested on: A498 renal
TK-10 renal = tested on: TK-10 renal
LOX IMVI melanoma = tested on: LOX IMVI melanoma

COc1ccc(CCc2cc(OC)c(O)c(OC)c2)cc1
TGI (SK-MEL-5 melanoma): > 100 µM | TGI (RPMI-8226 leukemia): > 100 µM | TGI (UACC-62 melanoma): > 100 µM | TGI (ACHN renal): > 100 µM | TGI (HT29 colon): > 100 µM | TGI (786-0 renal): > 100 µM | TGI (CCRF-CEM leukemia): > 100 µM | TGI (HOP-62 NSCLC): > 100 µM | TGI (SF-268 CNS): > 100 µM | TGI (UO-31 renal): > 100 µM | TGI (SR leukemia): > 100 µM | TGI (MOLT-4 leukemia): > 100 µM | TGI (M19-MEL melanoma): > 100 µM | TGI (NCI-H23 lung): > 100 µM | TGI (K-562 leukemia): > 100 µM | TGI (KM20L2 colon): > 100 µM | TGI (NCI-H522 lung): > 100 µM | TGI (HCT-116 colon): > 100 µM | TGI (OVCAR-3 ovarian): > 100 µM | TGI (NCI-H226 lung): > 100 µM | TGI (A549 NSCLC): > 100 µM | TGI (SNB-78 CNS): > 100 µM | TGI (EKVX NSCLC): > 100 µM | TGI (DLD-1 colon): > 100 µM | TGI (NCI-H460 lung): > 100 µM | TGI (OVCAR-4 ovarian): > 100 µM | TGI (SK-MEL-28 melanoma): 58.8 µM | TGI (IGROV1 ovarian): > 100 µM | TGI (SNB-75 CNS): > 100 µM | TGI (SN12C renal): > 100 µM | TGI (HOP-92 NSCLC): > 100 µM | TGI (SW-620 colon): > 100 µM | TGI (SK-MEL-2 melanoma): > 100 µM | TGI (DMS 273 small cell lung): > 100 µM | TGI (XF 498 CNS): > 100 µM | TGI (KM12 colon): > 100 µM | TGI (SK-OV-3 ovarian): > 100 µM | TGI (OVCAR-5 ovarian): > 100 µM | TGI (COLO 205 colon): > 100 µM | TGI (M14 melanoma): > 100 µM | TGI (LXFL 529 NSCLC): > 100 µM | TGI (U251 CNS): > 100 µM | TGI (SF-539 CNS): > 100 µM | TGI (RXF-631 renal): > 100 µM | TGI (UACC-257 melanoma): 91.6 µM | TGI (DMS 114 small cell lung): > 100 µM | TGI (SNB-19 CNS): > 100 µM | TGI (MALME-3M melanoma): > 100 µM | TGI (OVCAR-8 ovarian): > 100 µM | TGI (CAKI-1 renal): > 100 µM | TGI (HCC-2998 colon): > 100 µM

Cn1cnc([N+](=O)[O-])c1Sc1nccc(=O)[nH]1
TGI (SK-MEL-5 melanoma): > 100 µM | TGI (RPMI-8226 leukemia): > 100 µM | TGI (UACC-62 melanoma): > 100 µM | TGI (ACHN renal): > 100 µM | TGI (HT29 colon): > 100 µM | TGI (786-0 renal): > 100 µM | TGI (CCRF-CEM leukemia): > 100 µM | TGI (HOP-62 NSCLC): > 100 µM | TGI (SF-268 CNS): > 100 µM | TGI (UO-31 renal): > 100 µM | TGI (SR leukemia): > 100 µM | TGI (MOLT-4 leukemia): > 100 µM | TGI (M19-MEL melanoma): > 100 µM | TGI (SF-295 CNS): > 100 µM | TGI (NCI-H23 lung): > 100 µM | TGI (HOP-18 NSCLC): > 100 µM | TGI (K-562 leukemia): > 100 µM | TGI (NCI-H522 lung): > 100 µM | TGI (HCT-116 colon): > 100 µM | TGI (OVCAR-3 ovarian): > 100 µM | TGI (NCI-H226 lung): > 100 µM | TGI (A549 NSCLC): > 100 µM | TGI (A498 renal): > 100 µM | TGI (SNB-78 CNS): > 100 µM | TGI (EKVX NSCLC): > 100 µM | TGI (DLD-1 colon): > 100 µM | TGI (NCI-H460 lung): > 100 µM | TGI (OVCAR-4 ovarian): > 100 µM | TGI (TK-10 renal): > 100 µM | TGI (SK-MEL-28 melanoma): > 100 µM | TGI (IGROV1 ovarian): > 100 µM | TGI (SNB-75 CNS): > 100 µM | TGI (SN12C renal): > 100 µM | TGI (HOP-92 NSCLC): > 100 µM | TGI (SW-620 colon): > 100 µM | TGI (SK-MEL-2 melanoma): > 100 µM | TGI (DMS 273 small cell lung): > 100 µM | TGI (XF 498 CNS): > 100 µM | TGI (KM12 colon): > 100 µM | TGI (SK-OV-3 ovarian): > 100 µM | TGI (OVCAR-5 ovarian): > 100 µM | TGI (COLO 205 colon): > 100 µM | TGI (M14 melanoma): > 100 µM | TGI (LXFL 529 NSCLC): > 100 µM | TGI (U251 CNS): > 100 µM | TGI (SF-539 CNS): > 100 µM | TGI (RXF-631 renal): > 100 µM | TGI (LOX IMVI melanoma): > 100 µM | TGI (UACC-257 melanoma): > 100 µM | TGI (DMS 114 small cell lung): > 100 µM | TGI (SNB-19 CNS): > 100 µM | TGI (MALME-3M melanoma): > 100 µM | TGI (OVCAR-8 ovarian): > 100 µM | TGI (CAKI-1 renal): > 100 µM | TGI (HCC-2998 colon): > 100 µM
